{
  "source": "patent US9341839B2",
  "about": "“Electrowetting display device and dye composition for electrowetting display” (FUJIFILM CORPORATION, priority 2012, dated 2016)",
  "assay": "Solubility of dye in normal decane",
  "format": "physicochemical",
  "conditions": "n-decane, 25° C., after heating to 50° C. and leaving 12 hours; 40% by mass added",
  "data": [
    {"substance": "tetraphenylporphine [Comparative compound H-1]", "values": [
      {"measurement": "Solubility in Decane", "result": "less than 0.1% by mass"}
    ]}
  ]
}
